Test results: publication PMC7802073, “Small Molecule Inhibitors of the Bacterioferritin (BfrB)–Ferredoxin (Bfd) Complex Kill Biofilm-Embedded Pseudomonas aeruginosa Cells” (ACS Infectious Diseases, 2020)
≈ marks a conversion by molar mass, not a printed value. Where two headings read alike, the source gives them in different places.

Assays:
PA_1076058 = conditions: isolate purchased from JMI Laboratories, no MIC method given; cited from earlier work
PA_1081725 = conditions: isolate purchased from JMI Laboratories, no MIC method given; cited from earlier work
P. aeruginosa PAO1 [1] = system: P. aeruginosa PAO1; set-up: method as in PMID 31038945; conditions: planktonic growth, cited from earlier work
P. aeruginosa PAO1 [2] = assay: Half maximal inhibitory concentration (IC50) on planktonic growth, CFU/mL enumeration; format: cell-based, Pseudomonas aeruginosa; conditions: 24 h, 35 °C, 2% DMSO, this work
Experimental: Chemicals were purchased from Fisher Scientific unless otherwise stated. P. aeruginosa PAO1 was obtained from the University of Washington Genome center.[81] The PAO1 strain expressing enhanced yellow fluorescent protein (EYFP) was prepared previously.[26] Clinical isolates of P. aeruginosa were purchased from JMI Laboratories (North Liberty, IA, USA). […] Starter cultures were grown from a single colony at 37 °C and shaking at 220 rpm for 14 h in 5 mL PI media supplemented with 10 μM Fe. Pellicle biofilms were cultured for 48 h at 30 °C in PI media supplemented with 20 μM Fe. Surface-attached biofilms were cultured in AB minimal media[82] supplemented with trace metals [0.15 μM (NH4)2MoO4, 3 μM CuSO4, 2 μM Co(NO3)2, 9.4 μM Na2B4O7, and 7.6 μM ZnSO4], 3 mM glucose and 15 μM Fe. Iron supplementation was carried out by addition of a small volume of filter-sterilized 10 mM (NH4)2Fe(SO4)2 (pH ∼ 2.0) solution. […]; IC50 values (Table 1, Figure S1) were determined as reported previously[25] with small modifications. In brief: precultures of P. aeruginosa PAO1 (5 mL) were grown in LB media for 13 h at 37 °C and 220 rpm in 50 mL conical tubes (VWR International, PA). The cells were centrifuged for 5 min at 4000 rpm and 4 °C, washed two times and then diluted in buffer (100 mM KH2PO4 and 15 mM (NH4)2SO4) to an optical density at 600 nm (OD600) of 0.1. A small volume of compound stock solution (10 mM) was transferred to a microcentrifuge tube, initially diluted with DMSO to 20 μL, and then diluted to 1 mL with preculture cell suspension in defined media with OD600 = 0.0001, so the final DMSO concentration is 2%. The resultant cell suspension (200 μL) was transferred to a clear-bottom polystyrene 96-well plate (VWR) covered with a lid and incubated at 35 °C and 205 cpm for 24 h in a Synergy H1 microplate reader (Biotek Instruments Inc., Vermont). The cell cultures were serially diluted and then plated on PI Agar (PIA; BD biosciences) plates for enumeration of viable cells (CFU/mL). The % growth was calculated from the ratio CFU/mL(treated)/CFU/mL(untreated control). To calculate the IC50 values, the % growth was plotted as a function of compound concentration, expressed as log[compound] (μM), and fitted to the 4-parameter logistic model describing the sigmoid-shaped response pattern (eq 1),[84] where b is the slope factor, max is the upper asymptote (plateau), and min is the lower asymptote. Values are the average and standard deviation from three independent experiments. [drawing 1] 1

BfrB [3] = target: T1, BfrB (Pseudomonas aeruginosa, UniProt Q9HY79); assay: Dissociation constant (Kd) for BfrB by fluorescence polarization; format: binding
T1 sequence (Q9HY79 whole entry): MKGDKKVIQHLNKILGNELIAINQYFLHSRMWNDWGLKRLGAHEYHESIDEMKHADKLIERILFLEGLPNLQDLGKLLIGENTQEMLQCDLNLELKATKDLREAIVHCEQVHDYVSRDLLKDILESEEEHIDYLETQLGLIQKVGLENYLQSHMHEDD
Experimental: Dissociation constants for the interaction between BfrB and 3-aminoisoindoline-1,3-dione derivatives (Table 1, Figure S1) were measured in vitro with a fluorescence polarization method based on the intrinsic fluorescence of the isoindoline-1,3-dione moiety, as described previously.[25]
25 (A) and KM-5-66 (B) for BfrB, evaluated by fluorescence polarization, as described previously1.
Values were obtained in 100 mM potassium phosphate buffer (pH 7.6) containing 1 mM TCEP and
0.5% DMSO. The initial concentrations of KM-5-25 and KM-5-66 were 5 µM. The Kd values are the
average and standard deviation from three independent measurements. […]

Aqueous solubility = format: physicochemical; conditions: for solubility: PBS buffer, read-out: solubility in PBS buffer; for aqueous solubility (in words): aqueous solution
P. aeruginosa = system: P. aeruginosa; set-up: method as in PMID 11420333; conditions: cited from earlier work
[4] = system: Pellicles of P. aeruginosa PAO1 expressing EYFP; assay: Pellicle biofilm assay, CLSM imaging and COMSTAT viable biomass; format: cell-based, Pseudomonas aeruginosa; conditions: 2-day old pellicles, 24 h
Experimental: Pellicle biofilms of EYFP-expressing P. aeruginosa PAO1 or clinical isolates were grown in PI media supplemented with 20 μM Fe. Starter cultures were diluted to OD600 = 0.001 in 4 mL media, placed in 35 × 10 mm Petri dishes and incubated statically at 30 °C for 48 h. The pellicles were transferred onto circular (1.5 cm diameter) glass coverslips by gently allowing the surface of a coverslip to contact a pellicle. The pellicle-adhered coverslip was washed in PBS and then deposited on top of 1.5 mL AB challenge media contained in a well of a 12-well microplate, with the pellicle exposed to the media. […] The coverslip-adhered pellicles were exposed to challenge media at 30 °C for 24 h, changing the challenge media every 12 h by transferring the pellicle-adhered coverslip to a new plate containing prewarmed challenge media.
Excess fluorescent dye was washed with PBS, the coverslip was mounted on a glass slide using 5 μL SlowFade (Invitrogen Life Technologies) and the edges sealed with fingernail polish. CLSM image stacks (z-step size of 0.3 μm) were acquired with the aid of a Leica TCS SP8 microscope, as described above. Quantitative analysis was performed by determination of pellicle biomass using COMSTAT[55] and the Otsu method of automatic thresholding.[86]

[5] = system: EYFP-expressing P. aeruginosa PAO1 biofilms; assay: Flow cell biofilm assay, CLSM imaging and COMSTAT viable biomass; format: cell-based, Pseudomonas aeruginosa; conditions: 3-day old flow cell biofilms, 24 h treatment, 25× MIC
Description: The treated biofilms were counterstained with the cell impermeable fluorescent nucleic acid dye Sytox Red and then imaged with the aid of confocal laser scanning microscopy (CLSM).
Image stacks were acquired with a z-step size of 0.3 μm at randomly chosen positions.

[6] = system: EYFP-expressing P. aeruginosa PAO1 pellicles; assay: Viable cells (CFU/mL) dispersed from pellicle biofilms; format: cell-based, Pseudomonas aeruginosa; conditions: 2-day old pellicles, 24 h
Experimental: Pellicle biofilms were grown as described above. Planktonic and loosely attached cells were washed (3 times) by immersing the coverslip-adhered pellicles (biofilm facing up) into a well of a 12-well plate containing 3 mL PBS, and incubating (5 min) with gentle rocking. To remove the pellicle from the coverslip, break the extracellular matrix and release cells from the biofilm, the coverslip-adhered pellicle was placed in a 50 mL conical tube containing a 2 mL suspension of zirconia beads (0.1 mm diameter, BioSpec Products), 10 mL PBS, 0.2 μg/mL alginate lyase and 0.2 μg/mL DNase. The resultant mixture was incubated at room temperature for 3 min, followed by vigorous vortexing for 4 min. After sedimentation of the zirconia beads, a 100 μL aliquot was used for serial dilution and plating on PIA plates for subsequent enumeration of viable cells (CFU/mL).

BfrB [7] = target: T1, BfrB; conditions: Bfd binding sites on BfrB equivalent and independent; cited from earlier work
[8] = Pseudomonas aeruginosa, PAO1, defined media, read-out: IC50

## NCC[C@H](O)C(=O)N[C@@H]1C[C@H](N)[C@@H](O[C@H]2O[C@H](CN)[C@@H](O)[C@H](O)[C@H]2O)[C@H](O)[C@H]1O[C@H]1O[C@H](CO)[C@@H](O)[C@H](N)[C@H]1O [Amikacin]
PA_1076058
  MIC: 4 µg/mL (≈ 6.83 µM)
PA_1081725
  MIC: 16 µg/mL (≈ 27.3 µM)

## Nc1cccc2c1C(=O)NC2=O [Analog 8, 4-aminoisoindoline-1,3-dione]
P. aeruginosa PAO1 [1]
  IC50: not active

## O=C1NC(=O)c2c(NCc3ccccc3O)cccc21 [Analog 11]
P. aeruginosa PAO1 [1]; read-out: IC50
  IC50: 258 ± 23 µM

## O=C1NC(=O)c2c(NCCCc3cccc(O)c3)cccc21 [Analog 16]
P. aeruginosa PAO1 [1]; read-out: IC50
  IC50: 121 ± 4 µM

## C[C@H]1[C@H](NC(=O)/C(=N\OC(C)(C)C(=O)O)c2csc(N)n2)C(=O)N1S(=O)(=O)O [Aztreonam]
PA_1076058
  MIC: 16 µg/mL (≈ 36.7 µM)
PA_1081725
  MIC: > 16 µg/mL

## O=C1NC(=O)c2c(NCc3cccc(O)c3)cccc21 [BN-XIV-53]
P. aeruginosa PAO1 [2]; defined media
  IC50: not active at 120 μM
BfrB [3]
  Kd: 21 ± 3 µM

## CC(C)(O/N=C(\C(=O)N[C@@H]1C(=O)N2C(C(=O)[O-])=C(C[n+]3ccccc3)CS[C@H]12)c1csc(N)n1)C(=O)O [Ceftazidime]
PA_1076058
  MIC: > 32 µg/mL
PA_1081725
  MIC: > 32 µg/mL

## C[C@H]1c2cccc(O)c2C(=O)C2=C(O)[C@]3(O)C(=O)C(C(N)=O)=C(O)[C@@H](N(C)C)[C@@H]3[C@@H](O)[C@@H]21 [Doxycycline]
PA_1076058
  MIC: > 8 µg/mL
PA_1081725
  MIC: 4 µg/mL (≈ 9 µM)

## CNC(C)C1CCC(N)C(OC2C(N)CC(N)C(OC3OCC(C)(O)C(NC)C3O)C2O)O1 (stereo not shown) [Gentamicin]
PA_1076058
  MIC: > 16 µg/mL
PA_1081725
  MIC: 4 µg/mL (≈ 8.38 µM)

## O=C1NC(=O)c2c(NCCCc3cc(F)ccc3O)cccc21 [JAG-5-6, 4-((3-(5-fluoro-2-hydroxyphenyl)propyl)amino)isoindoline-1,3-dione]
P. aeruginosa PAO1 [2]; [8]
  IC50: 54 ± 9 µM
BfrB [3]
  Kd: 0.43 ± 0.07 µM

## O=C1NC(=O)c2c(NCc3cc(F)ccc3O)cccc21 [JAG-5-7, 4-((5-Fluoro-2-hydroxybenzyl)amino)isoindoline-1,3-dione]
P. aeruginosa PAO1 [2]; [8]
  IC50: 128 ± 26 µM
BfrB [3]
  Kd: 7 ± 2 µM

## O=C1NC(=O)c2c(NCCCc3ccccc3O)cccc21 [KM-5-28]
P. aeruginosa PAO1 [2]; [8]
  IC50: 96 ± 1 µM
BfrB [3]
  Kd: 1.4 ± 0.2 µM

## O=C1NC(=O)c2c(NCc3c(O)cccc3Cl)cccc21 [KM-5-29, 4-((6-Chloro-2-hydroxybenzyl)amino)isoindoline-1,3-dione]
BfrB [3]
  Kd: 6 ± 0.5 µM
Aqueous solubility
  solubility: < 30 µM
  aqueous solubility (in words): poorly soluble in aqueous solution

## O=C1NC(=O)c2c(NCc3cccc(Cl)c3O)cccc21 [KM-5-30, 4-((3-Chloro-2-hydroxybenzyl)amino)isoindoline-1,3-dione]
P. aeruginosa PAO1 [2]; [8]
  IC50: 156 ± 30 µM
BfrB [3]
  Kd: 6 ± 1 µM

## O=C1NC(=O)c2c(NCc3cc(O)cc(Cl)c3)cccc21 [KM-5-50, 4-((5-Chloro-3-hydroxybenzyl)amino)isoindoline-1,3-dione]
P. aeruginosa PAO1 [2]; [8]
  IC50: 82 ± 16 µM
BfrB [3]
  Kd: 11 ± 2 µM

## O=C1NC(=O)c2c(NCCCc3cc(Cl)ccc3O)cccc21 [KM-5-54]
BfrB [3]
  Kd: 0.22 ± 0.04 µM
Aqueous solubility
  solubility: < 30 µM
  aqueous solubility (in words): poor water solubility

## O=C1NC(=O)c2c(NCCCc3cc(O)cc(O)c3)cccc21 [KM-5-57]
P. aeruginosa PAO1 [2]; defined media
  IC50: not active at 200 μM
BfrB [3]
  Kd: 2.5 ± 0.4 µM

## C[C@@H](O)[C@H]1C(=O)N2C(C(=O)O)=C(S[C@@H]3CN[C@H](C(=O)N(C)C)C3)[C@H](C)[C@H]12 [Meropenem]
PA_1076058
  MIC: 4 µg/mL (≈ 10.4 µM)
PA_1081725
  MIC: 32 µg/mL (≈ 83.4 µM)

## O=C(O)c1cn(C2CC2)c2cc(N3CCNCC3)c(F)cc2c1=O [ciprofloxacin]
P. aeruginosa; reported MIC converted to μM
  MIC: 0.75 µM
P. aeruginosa; reported MIC
  MIC: 0.25 µg/mL
PA_1076058
  MIC: > 16 µg/mL
PA_1081725
  MIC: 16 µg/mL (≈ 48.3 µM)

## NC[C@H]1O[C@H](O[C@H]2[C@H](O)[C@@H](O[C@H]3O[C@H](CO)[C@@H](O)[C@H](N)[C@H]3O)[C@H](N)C[C@@H]2N)[C@H](N)C[C@@H]1O [tobramycin]
[4]; 25× and 50× the MIC
  tolerance of pellicle biofilms (CLSM): tolerant
P. aeruginosa; reported MIC converted to μM
  MIC: 1.07 µM
P. aeruginosa; reported MIC
  MIC: 0.5 µg/mL
PA_1076058
  MIC: > 16 µg/mL
[5]
  % survival (viable biomass, COMSTAT): ~70%
PA_1081725
  MIC: 16 µg/mL (≈ 34.2 µM)
[6]; 25× MIC
  % cell survival, CFU/mL(after treatment)/CFU/mL(pretreatment): ~70%
[6]; 50× MIC
  % cell survival, CFU/mL(after treatment)/CFU/mL(pretreatment): ~70%

## colistin
[4]; 50× MIC
  fluorescence signal from viable cells expressing EYFP: undetectable
[4]; concentrations above 10× MIC
  susceptibility of pellicle biofilms (CLSM): susceptible
P. aeruginosa; reported MIC converted to μM
  MIC: 0.79 µM
P. aeruginosa; reported MIC
  MIC: 1 µg/mL
[5]
  % survival (viable biomass, COMSTAT): ~20%
[6]; 25× MIC
  % cell survival, CFU/mL(after treatment)/CFU/mL(pretreatment): ~10%
[6]; 50× MIC
  % cell survival, CFU/mL(after treatment)/CFU/mL(pretreatment): ~1%

B1: Bfd: bacterioferritin-associated ferredoxin, a [2Fe-2S] protein that binds BfrB to mobilize stored iron (protein, UniProt Q9HY80 1-73, looked up)
Bacterioferritin-associated …: MYVCLCQGVTDNQIRDAIYEGCCSYREVREATGVGTQCGKCACLAKQVVRETLNDLQSAQPVPAFGTTAFVAA
BfrB [7]
  Kd: 3 µM
